Reference: paper PMC2074382 (British Journal of Cancer, 1996)
Where a name gives a salt, the structure may show the parent alone.

Key:
[1] = test system: mice; conditions: by rough estimate; cited from earlier work
[2] = test system: solid tumour; assay: Tumour response (WHO criteria) in phase I study; format: in vivo, human
From the text: British Journal of Cancer (1996) 73, 744-750 O (C? 1996 Stockton Press All rights reserved 0007-0920/96 $12.00 Phase I and pharmacological study of the new topoisomerase I inhibitor G1147211, using a daily x 5 intravenous administration CJH Gerrits', GJ Creemers', JHM Schellens', P Wissel2, AS Th Planting', R Kunka2, K Selinger2, M de Boer-Dennert', Y Marijnen3, M Harteveld' and J Verweijl 'Department of Medical Oncology, Rotterdam Cancer Institute, Rotterdam, The Netherlands; 2Glaxo Wellcome Inc, Department of Clinical Pharmacology, NC, USA; 3Glaxo Wellcome Inc, Department of Clinical Research, Zeist, The Netherlands. Summary Topoisomerase I inhibitors are interesting anti-cancer agents with a novel mechanism of action. […] In subsequent patient cohorts the dose was escalated from 0.3 to 1.5 mg m-2 day-'. Pharmacokinetics analysis was performed on days 1 and 4 of the first course using a validated high- performance liquid chromatographic assay and non-compartmental methods. […] Its further development was stopped because of unpredictable and severe myelosuppression, gastrointestinal toxicity and haemorrhagic cystitis. In the late 1980s two discoveries brought about a renewal of interest in CPT; firstly, topoisomerase I was identified as the single cellular target of CPT (Hsiang et al., 1985; Hsiang and Liu, 1988) and, secondly, an overexpression of topoisomerase I was found in various tumour cell lines but not in normal tissues (Giovanella et al., 1989; Hirabayaski et al., 1992; Potmesil et al., 1988). Topoisomerase I is a nuclear enzyme that resolves topological problems of the torsionally strained (supercoiled) DNA (Slichenmyer et al., 1993). This is achieved by forming a covalent adduct between topoisome- rase I and the DNA, termed the cleavable complex. This catalytic intermediate creates single-strand DNA breaks, allowing the DNA molecule to rotate around the intact DNA strand at the cleavage site, leading to a relaxation of the DNA molecule and in this way replication, transcription and other DNA functions can proceed. These enzyme- bridged breaks are then resealed by topoisomerase I. CPT stabilises the cleavable complexes, thereby preventing resealing of single-strand DNA breaks in the presence of the drug (Covey et al., 1989; D'Arpa and Liu, 1989; Eng et al., 1988). Cytotoxicity is specific to the S-phase of the cell cycle because the double-strand breaks that occur during this phase are more difficult to repair in the presence of the drug (Horwitz and Horwitz, 1973). […]

[3] = test system: bone marrow cultures; conditions: ref Emerson et al., 1995; cited from earlier work

In the case of `CC[C@@]1(O)C(=O)OCc2c1cc1n(c2=O)Cc2c-1nc1cc3c(cc1c2CN1CCN(C)CC1)OCCO3` [GI147211, [7 - (methylpiperazinomethylene) - 10,11 - ethylene-dioxy-20(S)] camptothecin dihydrochloride], the “murine LD10 compared with topotecan” value [1] is listed as “equivalent to topotecan”, the “stable disease, patients” value ([2]; 18 evaluable patients) is listed as “ten” and the “response in leiomyosarcoma patient” value ([2]; liver metastasis of leiomyosarcoma of the stomach, after two courses) is listed as “minor response”. For the same compound, the “partial response, patients” value ([2]; metastatic colorectal cancer resistant to 5-FU/folinic acid, 18 evaluable patients) was “One”, the duration of remission ([2]; partial response, colorectal cancer) was 6 weeks and the “myelotoxicity compared with topotecan” value [3] was “more myelotoxic than topotecan”.
